Data from patent US6441195B1, “Substituted sulphonylamino(thio) carbonyl compounds” (Bayer Aktiengesellschaft, priority 1995, dated 2002).

Legend:
Format in all cases: in vivo
Lolium = experiment: Pre-emergence test/Greenhouse, Lolium; conditions: after three weeks
Method: (§1) To produce a suitable preparation of the active compound, 1 part by weight of active compound is mixed with the stated amount of solvent, the stated amount of emulsifier is added and the concentrate is diluted with water to the desired concentration.
(§2) Seeds of the test plants are sown in normal soil. After about 24 hours, the soil is watered with the preparation of active compound. Advantageously, the amount of water per unit area is kept constant. The active compound concentration in the preparation is not important, only the active compound appliation rate per unit area matters.
(§3) After three weeks, the degree of damage to the plants is rated in % damage in comparison to the development of the untreated control.
(§4) 0%=no action (like untreated control)

Ambrosia = experiment: Pre-emergence test/Greenhouse, Ambrosia; conditions: after three weeks
Method: as §1, §2, §3, §4

Poa = experiment: Pre-emergence test/Greenhouse, Poa; conditions: after three weeks
Method: as §1, §2, §3, §4

Maize = experiment: Pre-emergence test/Greenhouse, Maize
Method: as §1, §2, §3, §4

weeds = experiment: Pre-emergence test (greenhouse), activity against weeds; conditions: in words
Method: Solvent: 5 parts by weight of acetone
Emulsifier: 1 part by weight of alkylaryl polyglycol ether
as §1, §2, §3, §4

Solanum = experiment: Pre-emergence test/Greenhouse, Solanum; conditions: after three weeks
Method: as §1, §2, §3, §4

Matricaria = experiment: Pre-emergence test/Greenhouse, Matricaria; conditions: after three weeks
Method: as §1, §2, §3, §4

Soya beans = experiment: Pre-emergence test/Greenhouse, Soya beans
Method: as §1, §2, §3, §4

Sorghum = experiment: Pre-emergence test/Greenhouse, Sorghum; conditions: 125 g of ai./ha, after three weeks
Method: as §1, §2, §3, §4

[1] = pre-emergence, 60 g of ai./ha, after three weeks

SMILES	degree of damage to the plants (% damage vs untreated control), Lolium (Lolium; 60 g of ai./ha)	degree of damage to the plants (% damage vs untreated control), Ambrosia (Ambrosia; 60 g of ai./ha)	degree of damage to the plants (% damage vs untreated control), Poa (Poa; 60 g of ai./ha)	degree of damage to the plants (% damage vs untreated control), Maize (Maize; in vivo)	activity against weeds (weeds)	degree of damage to the plants (% damage vs untreated control), Solanum (Solanum; 60 g of ai./ha)	degree of damage to the plants (% damage vs untreated control), Matricaria (Matricaria; 60 g of ai./ha)	degree of damage to the plants (% damage vs untreated control), Soya beans (Soya beans; in vivo)	degree of damage to the plants (% damage vs untreated control), Solanum (Solanum; 125 g of ai./ha)	degree of damage to the plants (% damage vs untreated control), Matricaria (Matricaria; 125 g of ai./ha)	other results
COC(=O)c1scc(C)c1S(=O)(=O)NC(=O)n1nc(OC(C)C)n(C)c1=O [Example 40]	90%	95%	95%	10%	very strong activity against weeds	95%	95%	30%			
CCSc1nn(C(=O)NS(=O)(=O)c2c(C)cccc2C(=O)OC(C)C)c(=O)n1C [Example 42]	95%	95%	95%	10%	very strong activity against weeds	95%	95%	10%			
C#CCSc1nn(C(=O)NS(=O)(=O)c2c(C)cccc2C(=O)OC)c(=O)n1C [Example 161]	95%	95%	95%	0%	very strong activity against weeds	95%	95%	20%			
COC(=O)c1cccc(C)c1S(=O)(=O)NC(=O)n1nc(OCC(F)(F)F)n(C2CC2)c1=O [Example 142]				20%	very strong activity against weeds			10%			degree of damage to the plants (% damage vs untreated control), Lolium (Lolium; 15 g of ai./ha): 95%; degree of damage to the plants (% damage vs untreated control), Ambrosia (Ambrosia; 15 g of ai./ha): 80%; degree of damage to the plants (% damage vs untreated control), Poa (Poa; 15 g of ai./ha): 80%; degree of damage to the plants (% damage vs untreated control), Solanum (Solanum; 15 g of ai./ha): 80%; degree of damage to the plants (% damage vs untreated control), Matricaria (Matricaria; 15 g of ai./ha): 80%
CCOC(=O)c1scc(C)c1S(=O)(=O)NC(=O)n1nc(OCC)n(CC)c1=O [Example 64]	90%	100%	60%	10%	very strong activity against weeds	100%	100%	30%			
CCOn1c(SC)nn(C(=O)NS(=O)(=O)c2c(C)cccc2C(=O)OC)c1=O [Example 146]	80%	80%	90%	0%	very strong activity against weeds	90%	80%	10%			
Cc1csc(C(=O)OC(C)C)c1S(=O)(=O)NC(=O)n1nc(OC(C)C)n(C)c1=O [Example 84]				5%	very strong activity against weeds			30%	100%	95%	degree of damage to the plants (% damage vs untreated control), Lolium (Lolium; 125 g of ai./ha): 95%; degree of damage to the plants (% damage vs untreated control), Sorghum (Sorghum): 90%
CCn1c(OC)nn(C(=O)NS(=O)(=O)c2c(C)cccc2C(=O)OC(C)C)c1=O [Example 19]	95%	95%	95%	0%	very strong activity against weeds	90%	95%	0%			
CCOc1nn(C(=O)NS(=O)(=O)c2c(C)csc2C(=O)OC(C)C)c(=O)n1CC [Example 86]				10%	very strong activity against weeds			40%	95%	100%	degree of damage to the plants (% damage vs untreated control), Lolium (Lolium; 125 g of ai./ha): 80%; degree of damage to the plants (% damage vs untreated control), Sorghum (Sorghum): 70%
CCCc1nn(C(=O)NS(=O)(=O)c2c(C)csc2C(=O)OC)c(=O)n1OC [Example 39]	95%	95%	90%	0%	very strong activity against weeds	90%	70%	20%			
CCn1c(OC)nn(C(=O)NS(=O)(=O)c2c(C)csc2C(=O)OC)c1=O [Example 37]	90%	80%	70%	10%	very strong activity against weeds	90%	95%	10%			
CCCOC(=O)c1cccc(C)c1S(=O)(=O)NC(=O)n1nc(SCC)n(C)c1=O [Example 48]				30%	very strong activity against weeds			20%	95%	100%	degree of damage to the plants (% damage vs untreated control), Lolium (Lolium; 125 g of ai./ha): 95%; degree of damage to the plants (% damage vs untreated control), Ambrosia (Ambrosia; 125 g of ai./ha): 95%; degree of damage to the plants (% damage vs untreated control), Poa (Poa; 125 g of ai./ha): 95%
CCCOC(=O)c1cccc(C)c1S(=O)(=O)NC(=O)n1nc(OCC)n(CC)c1=O [Example 45]				10%	very strong activity against weeds			20%	95%	90%	degree of damage to the plants (% damage vs untreated control), Lolium (Lolium; 125 g of ai./ha): 90%; degree of damage to the plants (% damage vs untreated control), Ambrosia (Ambrosia; 125 g of ai./ha): 95%; degree of damage to the plants (% damage vs untreated control), Poa (Poa; 125 g of ai./ha): 95%
CCOn1c(SCC)nn(C(=O)NS(=O)(=O)c2c(C)cccc2C(=O)OC)c1=O [Example 3, 4-ethoxy-5-ethylthio-2-(2-methyl-6-methoxy-carbonyl-phenylsulphonylaminocarbonyl)-2,4-dihydro-3H-1,2,4-triazol-3-one]	90%	80%	70%		very strong activity against weeds	80%	95%				degree of damage to the plants (% damage vs untreated control), Maize (Maize; [1]): 10%; degree of damage to the plants (% damage vs untreated control), Soya beans (Soya beans; [1]): 20%
CCOC(=O)c1scc(C)c1S(=O)(=O)NC(=O)n1nc(SCC)n(C)c1=O [Example 56]					very strong activity against weeds			0%	95%	100%	degree of damage to the plants (% damage vs untreated control), Lolium (Lolium; 125 g of ai./ha): 60%; degree of damage to the plants (% damage vs untreated control), Poa (Poa; 125 g of ai./ha): 80%
C=CCn1c(SCCF)nn(C(=O)NS(=O)(=O)c2c(C)cccc2C(=O)OC)c1=O [Example 153]				0%	very strong activity against weeds			30%	95%	70%	degree of damage to the plants (% damage vs untreated control), Ambrosia (Ambrosia; 125 g of ai./ha): 95%; degree of damage to the plants (% damage vs untreated control), Poa (Poa; 125 g of ai./ha): 95%
C=CCOc1nn(C(=O)NS(=O)(=O)c2c(C)cccc2C(=O)OC)c(=O)n1C1CC1 [Example 147]				30%	very strong activity against weeds			0%			degree of damage to the plants (% damage vs untreated control), Lolium (Lolium; 15 g of ai./ha): 95%; degree of damage to the plants (% damage vs untreated control), Ambrosia (Ambrosia; 15 g of ai./ha): 70%; degree of damage to the plants (% damage vs untreated control), Poa (Poa; 15 g of ai./ha): 90%; degree of damage to the plants (% damage vs untreated control), Solanum (Solanum; 15 g of ai./ha): 80%; degree of damage to the plants (% damage vs untreated control), Matricaria (Matricaria; 15 g of ai./ha): 70%
